Measurements reported in patent US20180243286A1, “Antibacterial compositions of a beta-lactamase inhibitor with a cephalosporin” (WOCKHARDT LIMITED, priority 2015, published 2018).

What was measured:
[1] = tested on: E. coli M50 producing CMY 6, DHA-1/2 beta-lactamase enzymes; assay: Time kill study against clinical isolate of E. coli M50; assay type: cell-based; details: for Bacterial count (Log10 CFU/ml) 0 hour: 0 hour (starting inoculum); for Effect on bacterial counts when used alone: throughout the duration of the study
Description: (§1) The killing effect of the combinations according to invention was studied by performing time kill studies. In a typical time kill study, the freshly grown cultures were diluted to the required cell density (initial starting inoculum) in Cation adjusted Muller Hinton broth medium (BD, USA). The antibacterial agents (either alone or in combination) at the required concentrations were added into the culture-containing medium. The samples were incubated under shaking condition (120 rpm) at 37° C. Enumeration of viable bacterial count was done every 2 hour by diluting in normal saline and plating on to the Tryptic Soya Agar plates (BD, USA). The plates were incubated for 24 hours to arrive at the viable bacterial count. The results are expressed in terms of log10 CFU per ml. In general, the decrease of 1 log10 CFU/ml corresponds to 90% killing of bacteria. Similarly, 2 log10 CFU/ml reductions indicates to 99% killing of bacteria and 3 log10 CFU/ml reductions is equal to 99.9% killing of bacteria.
E. coli M50 produces resistant CMY 6, DHA-1/2 beta-lactamase enzymes.

[2] = tested on: K. pneumoniae H521 producing KPC, SHV and TEM beta-lactamase enzymes; assay: Time kill study against clinical isolate of K. pneumoniae H521; assay type: cell-based; details: for Bacterial count (Log10 CFU/ml) 0 hour: 0 hour (starting inoculum); for Change in Log10 CFU/ml over 0 hour count after 8 hours: positive = increase; for Effect on bacterial counts when used alone: throughout the duration of the study
Description: as §1
K. pneumoniae H521 produces resistant KPC, SHV and TEM beta-lactamase enzymes.

[3] = agent alone 4 mcg/ml, negative = reduction

Compound	Bacterial count (Log10 CFU/ml) 0 hour ([1]; agent alone 4 mcg/ml)	Bacterial count (Log10 CFU/ml) 2 hour ([1]; agent alone 4 mcg/ml)	Bacterial count (Log10 CFU/ml) 4 hour ([1]; agent alone 4 mcg/ml)	Bacterial count (Log10 CFU/ml) 6 hour ([1]; agent alone 4 mcg/ml)	Bacterial count (Log10 CFU/ml) 8 hour ([1]; agent alone 4 mcg/ml)	Change in Log10 CFU/ml over 0 hour count after 8 hours [1, 3]	Bacterial count (Log10 CFU/ml) 0 hour ([2]; agent alone 4 mcg/ml)	Bacterial count (Log10 CFU/ml) 2 hour ([2]; agent alone 4 mcg/ml)	Bacterial count (Log10 CFU/ml) 4 hour ([2]; agent alone 4 mcg/ml)	Bacterial count (Log10 CFU/ml) 6 hour ([2]; agent alone 4 mcg/ml)	Bacterial count (Log10 CFU/ml) 8 hour ([2]; agent alone 4 mcg/ml)	Change in Log10 CFU/ml over 0 hour count after 8 hours ([2]; agent alone 4 mcg/ml)	Effect on bacterial counts when used alone [1]	Effect on bacterial counts when used alone [2]	also measured
C=CC1=C(C(=O)O)N2C(=O)[C@@H](NC(=O)/C(=N\OCC(=O)O)c3csc(N)n3)[C@H]2SC1 [Cefixime]	7.14 Log10 CFU/ml	8.95 Log10 CFU/ml	8.40 Log10 CFU/ml	8.90 Log10 CFU/ml	8.65 Log10 CFU/ml	1.51 Log10 CFU/ml	7.18 Log10 CFU/ml	8.26 Log10 CFU/ml	8.85 Log10 CFU/ml	8.98 Log10 CFU/ml	8.95 Log10 CFU/ml	1.77 Log10 CFU/ml	–	–	–
COCC1=C(C(=O)O)N2C(=O)[C@@H](NC(=O)/C(=N\OC)c3csc(N)n3)[C@H]2SC1 [Cefpodoxime]	7.14 Log10 CFU/ml	8.18 Log10 CFU/ml	8.88 Log10 CFU/ml	8.95 Log10 CFU/ml	8.40 Log10 CFU/ml	1.26 Log10 CFU/ml	7.18 Log10 CFU/ml	8.60 Log10 CFU/ml	8.74 Log10 CFU/ml	8.93 Log10 CFU/ml	8.81 Log10 CFU/ml	1.63 Log10 CFU/ml	–	–	–
Nc1nc(/C(=C/CC(=O)O)C(=O)N[C@@H]2C(=O)N3C(C(=O)O)=CCS[C@H]23)cs1 [Ceftibuten]	7.14 Log10 CFU/ml	7.90 Log10 CFU/ml	8.40 Log10 CFU/ml	8.98 Log10 CFU/ml	8.93 Log10 CFU/ml	1.79 Log10 CFU/ml	7.18 Log10 CFU/ml	8.18 Log10 CFU/ml	8.88 Log10 CFU/ml	8.40 Log10 CFU/ml	8.60 Log10 CFU/ml	1.42 Log10 CFU/ml	did not reduce the bacterial counts	did not reduce the bacterial counts	–
CO/N=C(\C(=O)N[C@@H]1C(=O)N2C(C(=O)O)=C(COC(N)=O)CS[C@H]12)c1ccco1 [Cefuroxime]	7.14 Log10 CFU/ml	8.33 Log10 CFU/ml	8.54 Log10 CFU/ml	9.20 Log10 CFU/ml	8.65 Log10 CFU/ml	1.51 Log10 CFU/ml	7.18 Log10 CFU/ml	8.48 Log10 CFU/ml	8.70 Log10 CFU/ml	8.78 Log10 CFU/ml	8.60 Log10 CFU/ml	1.42 Log10 CFU/ml	did not reduce the bacterial counts	did not reduce the bacterial counts	–
NCCONC(=O)[C@@H]1CC[C@@H]2CN1C(=O)N2OS(=O)(=O)O [Compound of Formula (I), (2S,5R)—N-(2-aminoethoxy)-7-oxo-6-(sulfoxy)-1,6-diazabicyclo[3.2.1]octane-2-carboxamide]	7.14 Log10 CFU/ml	6.40 Log10 CFU/ml	5.32 Log10 CFU/ml	5.32 Log10 CFU/ml	5.34 Log10 CFU/ml	−1.8 Log10 CFU/ml	7.18 Log10 CFU/ml	7.98 Log10 CFU/ml	8 Log10 CFU/ml	8.37 Log10 CFU/ml	8.04 Log10 CFU/ml	0.86 Log10 CFU/ml	did not reduce the bacterial counts	did not reduce the bacterial counts	–
C[C@@H](O)[C@H]1C(=O)N2C(C(=O)O)=C(SCCN=CN)C[C@H]12 [Imipenem]	–	–	–	–	–	–	–	–	–	–	–	–	–	–	Bacterial count (Log10 CFU/ml) 0 hour ([1]; 1 mcg/ml alone): 7.14 Log10 CFU/ml; Bacterial count (Log10 CFU/ml) 2 hour ([1]; 1 mcg/ml alone): 4.25 Log10 CFU/ml; Bacterial count (Log10 CFU/ml) 4 hour ([1]; 1 mcg/ml alone): 4.60 Log10 CFU/ml; Bacterial count (Log10 CFU/ml) 6 hour ([1]; 1 mcg/ml alone): 6.04 Log10 CFU/ml; Bacterial count (Log10 CFU/ml) 8 hour ([1]; 1 mcg/ml alone): 7.34 Log10 CFU/ml; Change in Log10 CFU/ml over 0 hour count after 8 hours ([1]; 1 mcg/ml alone, positive = increase): 0.2 Log10 CFU/ml; Bacterial count (Log10 CFU/ml) 0 hour ([2]; 8 mcg/ml alone): 7.18 Log10 CFU/ml; Bacterial count (Log10 CFU/ml) 2 hour ([2]; 8 mcg/ml alone): 8.10 Log10 CFU/ml; Bacterial count (Log10 CFU/ml) 4 hour ([2]; 8 mcg/ml alone): 8.81 Log10 CFU/ml; Bacterial count (Log10 CFU/ml) 6 hour ([2]; 8 mcg/ml alone): 8.70 Log10 CFU/ml; Bacterial count (Log10 CFU/ml) 8 hour ([2]; 8 mcg/ml alone): 9.11 Log10 CFU/ml; Change in Log10 CFU/ml over 0 hour count after 8 hours ([2]; 8 mcg/ml alone): 1.93 Log10 CFU/ml
